{
  "source": "patent US9623002B2",
  "about": "“Pharmaceutical compositions of Anisomelic acid and the use thereof” (priority 2012, dated 2017)",
  "key": {"SiHa cells [1]": {"test_system": "SiHa cells", "assay": "MTT cytotoxicity assay", "type": "cell-based", "conditions": "50 μM AA, preliminary studies, unpublished data"}, "SiHa cells [2]": {"test_system": "SiHa cells", "assay": "PE active caspase-3 apoptosis assay by FACS", "type": "cell-based", "method": "(§1) SiHa cells were treated with 0-50 μM AA or solvent control at 10 μM interval. […] Fourty eight hours later, the cells were collected and analyzed for apoptosis and/or necrosis. Activated caspase-3 in cells was labeled with phyco-erythrin-conjugated antibody according to manufacturer's protocol (PE Active Caspase-3 Apoptosis Kit; BD Pharmingen, San Diego, Calif.) and analyzed by FACSCalibur flow cytometer (FL-2, FSC, BD Pharmingen). SiHa cells were also tested with 40 μM AA and AA emulsion for 24 and 48 h. The cells were collected and analyzed for apoptosis adopting PE active caspase-3 assay by FACS."}, "SiHa cells [3]": {"test_system": "SiHa cells", "assay": "Propidium iodide detection of permeabilized (necrotic) cells", "type": "cell-based", "conditions": "AA doses greater than 40 μM", "method": "For detection of permeabilized (necrotic) cells, the cells were trypsinized and resuspended in 50 μg/ml Propidium Iodide (PI) (Sigma-Aldrich) in PBS for 10 minutes at room temperature. The samples were analyzed by flow cytometry."}, "HeLa cells": {"test_system": "HeLa cells", "assay": "Apoptosis analysis in HeLa cells", "type": "cell-based", "conditions": "HPV positive HeLa cells (p53+), 40 μM AA, 48 h", "method": "as §1, with “Pharmingen).” for “Pharmingen). SiHa cells were also tested with 40 μM AA and AA emulsion for 24 and 48 h. The cells were collected and analyzed for apoptosis adopting PE active caspase-3 assay by FACS.”\n(§2) HeLa, Caski, c33a, MCF7, MDA-MB-231 and MEF cells were treated with 0 and 40 μM AA. Forty eight hours later, the cells were collected and analyzed for apoptosis."}, "Caski cells": {"test_system": "Caski cells", "assay": "Apoptosis analysis in Caski cells", "type": "cell-based", "conditions": "HPV positive Caski cells (p53+), 40 μM AA, 48 h", "method": "as §1, with “Pharmingen).” for “Pharmingen). SiHa cells were also tested with 40 μM AA and AA emulsion for 24 and 48 h. The cells were collected and analyzed for apoptosis adopting PE active caspase-3 assay by FACS.”\nas §2"}, "c33a cells [4]": {"test_system": "c33a cells", "assay": "Apoptosis analysis in c33a cells", "type": "cell-based", "conditions": "HPV negative c33a cells (p53−), 40 μM AA, 48 h", "method": "as §1, with “Pharmingen).” for “Pharmingen). SiHa cells were also tested with 40 μM AA and AA emulsion for 24 and 48 h. The cells were collected and analyzed for apoptosis adopting PE active caspase-3 assay by FACS.”\nas §2"}, "MCF7 cells": {"test_system": "MCF7 cells", "assay": "Apoptosis analysis in MCF7 cells", "type": "cell-based", "conditions": "breast cancer MCF7 cells (p53+), 40 μM AA, 48 h", "method": "as §1, with “Pharmingen).” for “Pharmingen). SiHa cells were also tested with 40 μM AA and AA emulsion for 24 and 48 h. The cells were collected and analyzed for apoptosis adopting PE active caspase-3 assay by FACS.”\nas §2"}, "MDA-MB-231 cells": {"test_system": "MDA-MB-231 cells", "assay": "Apoptosis analysis in MDA-MB-231 cells", "type": "cell-based", "conditions": "breast cancer MDA-MB-231 cells (p53−), 40 μM AA, 48 h", "method": "as §1, with “Pharmingen).” for “Pharmingen). SiHa cells were also tested with 40 μM AA and AA emulsion for 24 and 48 h. The cells were collected and analyzed for apoptosis adopting PE active caspase-3 assay by FACS.”\nas §2"}, "[5]": {"test_system": "Mouse Embryonic Fibroblasts (MEF)", "assay": "Cell death analysis in MEF cells", "type": "cell-based", "conditions": "non-cancerous MEF cells, 40 μM AA", "method": "as §1, with “Pharmingen).” for “Pharmingen). SiHa cells were also tested with 40 μM AA and AA emulsion for 24 and 48 h. The cells were collected and analyzed for apoptosis adopting PE active caspase-3 assay by FACS.”\nas §2"}, "SiHa cells [6]": {"test_system": "SiHa cells", "assay": "Mitochondrial depolarization by TMRM labeling", "type": "cell-based", "conditions": "20-40 μM AA, 8-48 h", "method": "Tetramethylrhodamine, methyl ester (TMRM, Invitrogen, Cergy Pontoise, France) was stored as 20 mM dimethylsulfoxide stock and diluted in medium before use. The cells were incubated in 20 nM tetramethylrhodamine for 10 min in 37° C. water bath. The cells were placed on ice and analyzed immediately by FACSCalibur flow cytometry."}, "[7]": {"test_system": "caspase-9, caspase-8, caspase-3 and PARP", "assay": "Western blotting for cleavage of caspases and PARP", "type": "cell-based", "conditions": "SiHa lysates", "method": "Whole cell lysates were prepared by lysing the cells in Laemmli sample buffer (Laemmli, 1970) and boiling the samples for 10 min after which proteins were separated in 12.5-15% SDS-PAGE. Western blotting was performed using antibodies against poly (ADP-ribose) polymerase (clone C-2-10; Sigma-Aldrich), Bid, Bax, caspase 8, caspase 9, caspase 3, SAPK/JNK, Phospho SAPK/JNK (Thr183/Tyr185), cIAP2 (Enzo Lifesciences), Akt, Phospho Akt(Ser473) (Cell Signalling Technology, Davers, Mass., USA), p21, Bcl-xL (Santa Cruz Biotechnology, Inc, Santa Cruz, Calif.), β-actin (clone AC-40; Sigma-Aldrich) and p53 (clone DO-1; BD Pharmingen). Horseradish peroxidase-conjugated secondary antibodies were obtained from Southern Biotechnology Associates (Birmingham, Ala.), Promega (Madison, Wis.) and Amersham Biosciences (Freiburg, Germany). The results were visualized using the ECL method (Amersham Biosciences) on X-ray film. The presented Western blot results are representative of at least three independent experiments."}, "SiHa cells [8]": {"test_system": "SiHa cells", "assay": "Cell cycle analysis of synchronized cells (PI, flow cytometry)", "type": "cell-based", "conditions": "24 h", "method": "(§3) Cells were synchronized by serum-starvation (1% serum) for 48 h and then cultured in medium containing 10% FCS for 24 h. After this, the cells were incubated with 0, 20 and 40 μM AA for 24. These doses were chosen since apoptosis induction was highest at 40 μM (the dose was limited to 40 μM in the following studies). The cells were collected and disrupted and the nuclei labelled for DNA content with PI by re-suspension in sodium citrate buffer [40 mM Na-citrate, 0.3% Triton X-100, 50 μg/ml PI (Sigma-Aldrich)]. After incubation at room temperature for 10 min, the samples were immediately analyzed by FACSCalibur flow cytometry."}, "[9]": {"test_system": "SiHa cells with p53 down-regulated by p53-shRNA", "assay": "RNA interference: p53-shRNA SiHa cells treated with AA", "type": "cell-based", "method": "as §3\nThe pSUPER vector (SEQ ID NO: 1) (Oligoengine, Seattle, Wash., USA) for expression of human p53 targeted shRNA (5′[…] AGUCUU3′, Brummelkamp et al., 2002) was kindly provided by Dr. Pia Roos-Mattjus. The scramble (Scr) pSUPER vector (SEQ ID NO: 2) (5′GCG CGC TTT GTA GGA TTC G3′, Ostling et al., 2007) was transfected to control cells. Trypsinized SiHa cells were transfected with the shRNA expression plasmids by electroporation in Opti-MEM media (Gibco, Calif., USA). Twenty four hours post-transfection, the culture medium was changed and the cells were treated with AA or left untreated, after which the cells were cultured for another 24 h or 48 h. The efficiency of the shRNA expression vector was determined by Western blotting for p53 expression.\nWhole cell lysates were prepared by lysing the cells in Laemmli sample buffer (Laemmli, 1970) and boiling the samples for 10 min after which proteins were separated in 12.5-15% SDS-PAGE. Western blotting was performed using antibodies against poly (ADP-ribose) polymerase (clone C-2-10; Sigma-Aldrich), Bid, Bax, caspase 8, caspase 9, caspase 3, SAPK/JNK, Phospho SAPK/JNK (Thr183/Tyr185), cIAP2 (Enzo Lifesciences), Akt, Phospho Akt(Ser473) (Cell Signalling Technology, Davers, Mass., USA), p21, Bcl-xL (Santa Cruz Biotechnology, Inc, Santa Cruz, Calif.), β-actin (clone AC-40; Sigma-Aldrich) and p53 (clone DO-1; BD Pharmingen). […]"}, "c33a cells [10]": {"test_system": "c33a cells", "assay": "His-tag E6 plasmid transfection of c33a cells, Western blot and FACS", "type": "cell-based", "conditions": "70 μM AA", "method": "c33a cells were pelleted and resuspended in OPTIMEM (Gibco, Invitrogen Foundation, Washington D.C., USA) and electroporated with mock or His-tag E6 plasmid at 220 V and 975 μF. Twenty four hours post-transfection, the culture medium was changed and the cells were treated with AA or left untreated, after which the cells were cultured for another 24 h or 48 h for further analysis adopting Western blotting and cell death assay by FACS."}, "Solubility": {"assay": "Solubility", "type": "physicochemical"}},
  "note": "“Also recorded” adds a separate entry of the source.",
  "data": [
    {"compound": "C=C1C(=O)O[C@H]2/C=C(\\C)CC/C=C(\\C(=O)O)CC/C=C(\\C)CC[C@H]12", "note": "[AA, Anisomelic acid]", "values": [
      {"measurement": "killing", "setting": "SiHa cells [1]", "result": "≥ 95", "unit": "%"},
      {"measurement": "time at which maximum percentage of apoptosis was achieved", "setting": "SiHa cells [2]; SiHa cells", "result": 48, "unit": "h"},
      {"measurement": "cells that contained activated caspase-3 as a measure of apoptosis", "setting": "SiHa cells [2]; SiHa, 40 μM AA, 48 h", "result": "marked activation of caspase-3"},
      {"measurement": "caspase-3 cleavage", "setting": "SiHa cells [2]; SiHa, AA doses greater than 40 μM", "result": "reduced caspase-3 cleavage dramatically"},
      {"measurement": "cell permeabilization by PI labeling (necrotic cell death)", "setting": "SiHa cells [3]", "result": "could not detect increased cell permeabilization"},
      {"measurement": "apoptosis induction", "setting": "HeLa cells", "result": "effectively induced apoptosis"},
      {"measurement": "apoptosis induction", "setting": "Caski cells", "result": "effectively induced apoptosis"},
      {"measurement": "apoptosis induction", "setting": "c33a cells [4]", "result": "significantly less; also recorded: do not undergo apoptosis"},
      {"measurement": "apoptosis induction", "setting": "MCF7 cells", "result": "failed to induce effective apoptosis"},
      {"measurement": "apoptosis induction", "setting": "MDA-MB-231 cells", "result": "failed to induce effective apoptosis"},
      {"measurement": "cell death", "setting": "[5]", "result": "failed to induce cell death"},
      {"measurement": "mitochondrial membrane depolarization", "setting": "SiHa cells [6]", "result": "occured in a time-dependent manner"},
      {"measurement": "cleavage of caspase-3 and PARP", "setting": "[7]; 20-40 μM AA", "result": "induced the cleavage of caspase-3 and poly-ADP-ribose polymerase (PARP)"},
      {"measurement": "cleavage of procaspase-9 into 35/37 kDa fragments", "setting": "[7]; 20 and 40 μM AA", "result": "seen after 12 h incubation"},
      {"measurement": "cleavage of procaspase-8", "setting": "[7]; AA treatment", "result": "observed abundantly only after 24 h"},
      {"measurement": "cell cycle distribution", "setting": "SiHa cells [8]; 20 and 40 μM AA", "result": "accumulated at the G2/M phase"},
      {"measurement": "dose at which G2/M arrest occurred more effectively", "setting": "SiHa cells [8]", "result": 20, "unit": "µM"},
      {"measurement": "percentage of AA-induced apoptosis (caspase-3 activation, flow cytometry)", "setting": "[9]; SiHa cells in the absence of p53 expression, 40 μM AA", "result": "did not observe any significant decrease"},
      {"measurement": "induction of p53 and p21 proteins by AA", "setting": "[9]; p53-shRNA SiHa cells, 40 μM & 20 μM AA respectively", "result": "abrogated"},
      {"measurement": "AA-induced cell cycle arrest", "setting": "[9]; p53-shRNA SiHa cells, 24 h after start of AA treatment", "result": "no longer accumulated at the G2/M phase"},
      {"measurement": "AA-induced apoptosis after E6 transfection", "setting": "c33a cells [10]; c33a cells transfected with His-tag E6 vs mock", "result": "rescued c33a cells from apoptsis significantly"},
      {"measurement": "apoptosis induction", "setting": "c33a cells [10]; c33a cells", "result": "undergo apoptosis"},
      {"measurement": "solubility in DMSO and hot ethanol", "setting": "Solubility", "result": "dissolves"},
      {"measurement": "solubility in water or other aqueous solvents", "setting": "Solubility", "result": "mostly insoluble"}
    ]},
    {"compound": "Z-VAD.fmk [reference compound]", "values": [
      {"measurement": "effect on AA-induced caspase-3 activation", "setting": "SiHa cells [2]; SiHa, pre-incubation with 40 μM Z-VAD.fmk prior to 40 μM AA, data not shown", "result": "reversed caspase-3 activation and apoptotic cell morphology"}
    ]}
  ]
}
